Data on 55 compounds can be found in patent US20200392116A1, “SUBSTITUTED HETEROCYCLES AS c-MYC TARGETING AGENTS” (NORTHWESTERN UNIVERSITY, priority 2019, published 2020).

This assay in a line: Potency code of Table 2 (assay not stated).

As to `CCCCCCOc1ccc(-c2cc(C(F)(F)F)n(C)n2)c(O)c1-c1cncc(C(F)(F)F)c1` [NUCC-0201210], the Potency code entry is “+ (>40 +)”.

With `CC(C)CCOc1ccc(-c2cc(C(F)(F)F)n(C)n2)c(O)c1-c1cncc(C(F)(F)F)c1` [NUCC-0201211], the Potency code entry is listed as “+ (>40 +)”.

On to `CCCCCCOc1ccc(-c2cc(C(F)(F)F)n(C)n2)c(O)c1-c1cncc(C#N)c1` [NUCC-0201212], for which the Potency code entry was “+ (>40 +)”.

Regarding `CC(C)CCOc1ccc(-c2cc(C(F)(F)F)n(C)n2)c(O)c1-c1cncc(C#N)c1` [NUCC-0201213], the Potency code entry is listed as “++++ (<10 ++++)”.

Regarding `C#CCOc1ccc(COc2ccc(-c3cc(C(F)(F)F)n[nH]3)c(O)c2-c2cc(C(F)(F)F)cc(C(F)(F)F)c2)cc1` [NUCC-0201219], the Potency code entry was “++++ (<10 ++++)”.

Regarding `COc1ccc(-c2cc(C(F)(F)F)[nH]n2)c(O)c1-c1cc(C(F)(F)F)cc(C(F)(F)F)c1` [NUCC-0201220], the Potency code result is “++++ (<10 ++++)”.

As for `COc1ccc(-c2cc(C(F)(F)F)n(C)n2)c(O)c1-c1cc(C(F)(F)F)cc(C(F)(F)F)c1` [NUCC-0201221], the Potency code entry is given as “+ (>40 +)”.

On to `COc1ccc(-c2cc(C(F)(F)F)nn2C)c(O)c1-c1cc(C(F)(F)F)cc(C(F)(F)F)c1` [NUCC-0201222], for which the Potency code result was “+++ (10-30 +++)”.

As for `CCCCOc1ccc(-c2cc(C(F)(F)F)n[nH]2)c(O)c1-c1ccc(Cl)c(C(F)(F)F)c1` [NUCC-0201225], the Potency code entry is recorded as “+ (>40 +)”.

As to `CCCCOc1ccc(-c2cc(C(F)(F)F)nn2C)c(O)c1-c1ccc(Cl)c(C(C)(C)F)c1` [NUCC-0201226], the Potency code result is “+++ (10-30 +++)”.

Regarding `CCCCOc1ccc(-c2cc(C(F)(F)F)n(C)n2)c(O)c1-c1ccc(Cl)c(C(F)(F)F)c1` [NUCC-0201227], the Potency code result was “++++ (<10 ++++)”.

In the case of `Cn1nc(C(F)(F)F)cc1-c1ccc(OCc2ccc(Cl)cc2)c(-c2cncc(C(F)(F)F)c2)c1O` [NUCC-0201630], the Potency code result is “+ (>40 +)”.

As for `Cn1nc(-c2ccc(OCc3ccc(Cl)cc3)c(-c3cncc(C(F)(F)F)c3)c2O)cc1C(F)(F)F` [NUCC-0201631], the Potency code result is given as “+ (>40 +)”.

With `Cn1nc(C(F)(F)F)cc1-c1ccc(OCc2ccc(Cl)cc2)c(-c2cncc(C#N)c2)c1O` [NUCC-0201632], the Potency code entry is “+++ (10-30 +++)”.

Consider `Cn1nc(-c2ccc(OCc3ccc(Cl)cc3)c(-c3cncc(C#N)c3)c2O)cc1C(F)(F)F` [NUCC-0201633], for which the Potency code result is given as “+ (>40 +)”.

Regarding `CC(C)CCOc1ccc(-c2cc(C(F)(F)F)[nH]n2)c(O)c1-c1ccc(Cl)c(C(F)(F)F)c1` [NUCC-0201634], the Potency code entry is “++ (30-40 ++)”.

Regarding `CC(C)CCOc1ccc(-c2cc(C(F)(F)F)nn2C)c(O)c1-c1ccc(Cl)c(C(F)(F)F)c1` [NUCC-0201635], the Potency code entry is recorded as “+ (>40 +)”.

Turning to `CC(C)CCOc1ccc(-c2cc(C(F)(F)F)[nH]n2)c(O)c1-c1cncc(C(F)(F)F)c1` [NUCC-0201636], the Potency code result is listed as “+ (>40 +)”.

For `CCCCOc1ccc(-c2cc(C(F)(F)F)[nH]n2)c(O)c1-c1cncc(C(F)(F)F)c1` [NUCC-0201637], the Potency code entry is reported as “+ (>40 +)”.

With `CCCCOc1ccc(-c2cc(C(F)(F)F)nn2C)c(O)c1-c1cncc(C#N)c1` [NUCC-0201638], the Potency code result was “+ (>40 +)”.

Consider `CCCCOc1ccc(-c2cc(C(F)(F)F)n(C)n2)c(O)c1-c1cncc(C#N)c1` [NUCC-0201639], for which the Potency code entry is “+ (>40 +)”.

Consider `NCCOc1ccc(-c2cc(C(F)(F)F)n[nH]2)c(O)c1-c1ccc(Cl)c(C(F)(F)F)c1` [NUCC-0201640], for which the Potency code result was “+ (>40 +)”.

In the case of `Cn1nc(-c2ccc(OCCN)c(-c3ccc(Cl)c(C(F)(F)F)c3)c2O)cc1C(F)(F)F` [NUCC-0201641], the Potency code result is “+ (>40 +)”.

In the case of `Cn1nc(C(F)(F)F)cc1-c1ccc(OCCCN)c(-c2ccc(Cl)c(C(F)(F)F)c2)c1O` [NUCC-0201642], the Potency code result is listed as “+ (>40 +)”.

Turning to `Cn1nc(-c2ccc(OCCCN)c(-c3ccc(Cl)c(C(F)(F)F)c3)c2O)cc1C(F)(F)F` [NUCC-0201643], the Potency code result is “+ (>40 +)”.

Regarding `CC(C)(C)OC(=O)NCCOc1ccc(-c2cc(C(F)(F)F)n[nH]2)c(O)c1-c1cncc(C(F)(F)F)c1` [NUCC-0201644], the Potency code result is “+ (>40 +)”.

Take `NCCCOc1ccc(-c2cc(C(F)(F)F)n[nH]2)c(O)c1-c1ccc(Cl)c(C(F)(F)F)c1` [NUCC-0201646]: the Potency code entry is “+ (>40 +)”.

`Cn1nc(C(F)(F)F)cc1-c1ccc(OCc2ccc([N+](=O)[O-])cc2)c(-c2cc(C(F)(F)F)cc(C(F)(F)F)c2)c1O` [NUCC-0201648]: the Potency code entry is given as “+ (>40 +)”.

Regarding `Cn1nc(-c2ccc(OCc3ccc([N+](=O)[O-])cc3)c(-c3cc(C(F)(F)F)cc(C(F)(F)F)c3)c2O)cc1C(F)(F)F` [NUCC-0201649], the Potency code result was “+ (>40 +)”.

For the compound `CCCCOc1ccc(-c2cc(C(F)(F)F)nn2C)c(O)c1-c1cc(C(F)(F)F)cc(C(F)(F)F)c1` [NUCC-0201651], the Potency code entry was “+ (>40 +)”.

In the case of `CCCCOc1ccc(-c2cc(C(F)(F)F)n(C)n2)c(O)c1-c1cc(C(F)(F)F)cc(C(F)(F)F)c1` [NUCC-0201652], the Potency code entry is on record as “+ (>40 +)”.

Regarding `Cn1nc(C(F)(F)F)cc1-c1ccc(OCc2ccc([N+](=O)[O-])cc2)c(-c2cncc(C(F)(F)F)c2)c1O` [NUCC-0201653], the Potency code result is reported as “+++ (10-30 +++)”.

As for `Cn1nc(-c2ccc(OCc3ccc([N+](=O)[O-])cc3)c(-c3cncc(C(F)(F)F)c3)c2O)cc1C(F)(F)F` [NUCC-0201654], the Potency code result is listed as “+ (>40 +)”.

For `Cn1nc(C(F)(F)F)cc1-c1ccc(OCCCNC(=O)OC(C)(C)C)c(-c2cncc(C(F)(F)F)c2)c1O` [NUCC-0201655], the Potency code entry is given as “+ (>40 +)”.

In the case of `Cn1nc(-c2ccc(OCCCNC(=O)OC(C)(C)C)c(-c3cncc(C(F)(F)F)c3)c2O)cc1C(F)(F)F` [NUCC-0201656], the Potency code result is on record as “+ (>40 +)”.

In the case of `Cn1nc(C(F)(F)F)cc1-c1ccc(OCCCNC(=O)OC(C)(C)C)c(-c2ccc(Cl)c(C(F)(F)F)c2)c1O` [NUCC-0201657], the Potency code result is given as “+ (>40 +)”.

Turning to `Cn1nc(-c2ccc(OCCCNC(=O)OC(C)(C)C)c(-c3ccc(Cl)c(C(F)(F)F)c3)c2O)cc1C(F)(F)F` [NUCC-0201658], the Potency code result is given as “++ (30-40 ++)”.

On to `C#CCCC(=O)NCCCOc1ccc(-c2cc(C(F)(F)F)n[nH]2)c(O)c1-c1ccc(Cl)c(C(F)(F)F)c1` [NUCC-0201659], for which the Potency code result was “+ (>40 +)”.

Regarding `O=C(CCc1cn(CCOCCOCCOCC(=O)Nc2cccc3c2C(=O)N(C2CCC(=O)NC2=O)C3=O)nn1)NCCOc1ccc(-c2cc(C(F)(F)F)n[nH]2)c(O)c1-c1cncc(C(F)(F)F)c1` (stereo not shown) [NUCC-0201660], the Potency code result is reported as “+ (>40 +)”.

In the case of `Nc1ccc(COc2ccc(-c3cc(C(F)(F)F)n[nH]3)c(O)c2-c2cncc(C(F)(F)F)c2)cc1` [NUCC-0201661], the Potency code entry is recorded as “+ (>40 +)”.

As for `C#CCC(N=[N+]=[N-])C(=O)NCCCOc1ccc(-c2cc(C(F)(F)F)n(C)n2)c(O)c1-c1cncc(C(F)(F)F)c1` (stereo not shown) [NUCC-0201694], the Potency code result is “+ (>40 +)”.

As to `C#CCC(N=[N+]=[N-])C(=O)NCCCOc1ccc(-c2cc(C(F)(F)F)nn2C)c(O)c1-c1ccc(Cl)c(C(F)(F)F)c1` (stereo not shown) [NUCC-0201695], the Potency code entry was “+ (>40 +)”.

Take `C#CCC(N=[N+]=[N-])C(=O)NCCCOc1ccc(-c2cc(C(F)(F)F)nn2C)c(O)c1-c1cncc(C(F)(F)F)c1` (stereo not shown) [NUCC-0201696]: the Potency code result is on record as “++ (30-40 ++)”.

Consider `C#CCC(N=[N+]=[N-])C(=O)NCCOc1ccc(-c2cc(C(F)(F)F)n[nH]2)c(O)c1-c1cncc(C(F)(F)F)c1` (stereo not shown) [NUCC-0201697], for which the Potency code result is “+ (>40 +)”.

`C#CCC(N=[N+]=[N-])C(=O)Nc1ccc(COc2ccc(-c3cc(C(F)(F)F)nn3C)c(O)c2-c2cncc(C(F)(F)F)c2)cc1` (stereo not shown) [NUCC-0201698]: the Potency code entry is “+ (>40 +)”.

Turning to `C#CCC(N=[N+]=[N-])C(=O)Nc1ccc(COc2ccc(-c3cc(C(F)(F)F)n(C)n3)c(O)c2-c2cncc(C(F)(F)F)c2)cc1` (stereo not shown) [NUCC-0201699], the Potency code entry is recorded as “+ (>40 +)”.

In the case of `Cn1nc(C(F)(F)F)cc1-c1ccc(OCCCNC(=O)COCCOCCOCCn2cc(COc3cccc4c3C(=O)N(C3CCC(=O)NC3=O)C4=O)nn2)c(-c2ccc(Cl)c(C(F)(F)F)c2)c1O` (stereo not shown) [NUCC-0201702], the Potency code result is “+ (>40 +)”.

Turning to `Cn1nc(C(F)(F)F)cc1-c1ccc(OCCCNC(=O)COCCOCCOCCn2cc(COc3cccc4c3C(=O)N(C3CCC(=O)NC3=O)C4=O)nn2)c(-c2cncc(C(F)(F)F)c2)c1O` (stereo not shown) [NUCC-0201703], the Potency code entry is reported as “+ (>40 +)”.

As for `O=C(COCCOCCOCCn1cc(COc2cccc3c2C(=O)N(C2CCC(=O)NC2=O)C3=O)nn1)NCCOc1ccc(-c2cc(C(F)(F)F)n[nH]2)c(O)c1-c1cncc(C(F)(F)F)c1` (stereo not shown) [NUCC-0201704], the Potency code result is “+ (>40 +)”.

Take `C#CCOc1cccc2c1C(=O)N(C1CCC(=O)NC1=O)C2=O` (stereo not shown) [NUCC-0201705]: the Potency code entry is “+ (>40 +)”.

As to `Oc1c(-c2cc(C(F)(F)F)[nH]n2)ccc(OCc2ccc(Cl)cc2)c1-c1ccsc1` [NUCC-0201909], the Potency code entry is on record as “+ (>40 +)”.

With `Oc1c(-c2cc(C(F)(F)F)[nH]n2)ccc(OCc2ccc(Cl)cc2)c1C1CC1` [NUCC-0201910], the Potency code result is on record as “+ (>40 +)”.

As for `N#Cc1ccc(COc2ccc(-c3cc(C(F)(F)F)[nH]n3)c(O)c2-c2ccc(Cl)c(C(F)(F)F)c2)cc1` [NUCC-0201911], the Potency code result is listed as “+ (>40 +)”.

Take `Cn1nc(-c2ccc(OCc3ccc(C#N)cc3)c(-c3ccc(Cl)c(C(F)(F)F)c3)c2O)cc1C(F)(F)F` [NUCC-0201912]: the Potency code result is on record as “+ (>40 +)”.

Take `Cn1nc(C(F)(F)F)cc1-c1ccc(OCc2ccc(C#N)cc2)c(-c2ccc(Cl)c(C(F)(F)F)c2)c1O` [NUCC-0201913]: the Potency code entry is reported as “+ (>40 +)”.
